Measurements: ChEMBL document CHEMBL5252515, “Discovery of 6-Amino-2-{[(1S)-1-methylbutyl]oxy}-9-[5-(1-piperidinyl)pentyl]-7,9-dihydro-8H-purin-8-one (GSK2245035), a Highly Potent and Selective Intranasal Toll-Like Receptor 7 Agonist for the Treatment of Asthma” (J Med Chem, 2016)
Activity calls are given as the source filed them. The rule behind the calls is not given here.

Tests used:
[1] = biological target: T1, Toll-like receptor 7 (Macaca fascicularis) (UniProt B3Y652); test: In vivo target occupancy at TLR7 in cynomolgus monkey assessed as fold increase in CXCL10 mRNA expression in nasal scrape at 30 ng/kg administered intranasally incubated for 24 hrs by TaqMan analysis (reference value: 1.6); type: functional
T1 sequence (whole entry): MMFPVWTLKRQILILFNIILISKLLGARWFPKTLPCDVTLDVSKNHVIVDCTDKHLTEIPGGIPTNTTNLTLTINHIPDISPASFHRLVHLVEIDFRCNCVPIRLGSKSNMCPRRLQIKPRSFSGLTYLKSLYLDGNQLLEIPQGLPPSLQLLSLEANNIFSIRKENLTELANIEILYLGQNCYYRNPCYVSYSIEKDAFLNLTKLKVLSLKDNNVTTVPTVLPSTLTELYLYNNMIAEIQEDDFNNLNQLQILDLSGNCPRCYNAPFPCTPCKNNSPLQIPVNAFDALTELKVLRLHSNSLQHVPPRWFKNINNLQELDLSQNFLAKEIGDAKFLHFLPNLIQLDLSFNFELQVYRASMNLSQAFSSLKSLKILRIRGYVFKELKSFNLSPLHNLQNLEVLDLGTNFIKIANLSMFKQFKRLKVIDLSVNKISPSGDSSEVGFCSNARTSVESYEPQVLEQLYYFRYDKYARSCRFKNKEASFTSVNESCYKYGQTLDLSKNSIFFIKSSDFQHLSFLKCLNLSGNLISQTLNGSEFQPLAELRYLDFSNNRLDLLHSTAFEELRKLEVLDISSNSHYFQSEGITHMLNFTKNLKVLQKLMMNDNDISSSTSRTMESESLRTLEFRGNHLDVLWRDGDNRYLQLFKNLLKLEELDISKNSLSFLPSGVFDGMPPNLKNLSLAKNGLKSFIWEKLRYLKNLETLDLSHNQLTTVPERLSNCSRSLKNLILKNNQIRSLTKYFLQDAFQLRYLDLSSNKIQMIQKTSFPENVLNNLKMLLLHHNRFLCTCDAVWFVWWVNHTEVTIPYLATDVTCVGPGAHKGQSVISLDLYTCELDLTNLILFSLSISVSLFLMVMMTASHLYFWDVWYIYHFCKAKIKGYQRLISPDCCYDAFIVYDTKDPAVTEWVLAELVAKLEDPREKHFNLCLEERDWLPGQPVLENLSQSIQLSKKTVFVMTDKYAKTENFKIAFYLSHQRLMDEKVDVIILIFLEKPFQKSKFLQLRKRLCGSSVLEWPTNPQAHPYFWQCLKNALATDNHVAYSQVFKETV

[2] = Toxicity in mouse assessed as dermal irritancy at 1000 ug/ml administered intranasally after 4 hrs; conditions: in vivo, inhaled_or_intranasal, dose 1000 µg/ml
[3] = biological target: T1, Toll-like receptor 7 (Macaca fascicularis); test: In vivo target occupancy at TLR7 in cynomolgus monkey assessed as fold increase in GBP1 mRNA expression in nasal scrape at 30 ng/kg administered intranasally incubated for 24 hrs by TaqMan analysis (reference value: 2.4); type: functional
[4] = Toxicity in female rat assessed as NOAEL after 8 weeks; conditions: in vivo
Cynomolgus monkey = test: Increase in TNF-alpha level in cynomolgus monkey serum at 3000 ng/kg, administered intranasally after 6 hrs; type: functional, organism-based; conditions: Macaca fascicularis
[5] = biological target: Toll-like receptor 3 (Homo sapiens) (UniProt O15455); test: Agonist activity at TLR3 (unknown origin) expressed in HEK cells upto 50 uM by luciferase reporter assay; type: cell-based
Toll-like receptor 3 (Homo sapiens), sequence (O15455 whole entry): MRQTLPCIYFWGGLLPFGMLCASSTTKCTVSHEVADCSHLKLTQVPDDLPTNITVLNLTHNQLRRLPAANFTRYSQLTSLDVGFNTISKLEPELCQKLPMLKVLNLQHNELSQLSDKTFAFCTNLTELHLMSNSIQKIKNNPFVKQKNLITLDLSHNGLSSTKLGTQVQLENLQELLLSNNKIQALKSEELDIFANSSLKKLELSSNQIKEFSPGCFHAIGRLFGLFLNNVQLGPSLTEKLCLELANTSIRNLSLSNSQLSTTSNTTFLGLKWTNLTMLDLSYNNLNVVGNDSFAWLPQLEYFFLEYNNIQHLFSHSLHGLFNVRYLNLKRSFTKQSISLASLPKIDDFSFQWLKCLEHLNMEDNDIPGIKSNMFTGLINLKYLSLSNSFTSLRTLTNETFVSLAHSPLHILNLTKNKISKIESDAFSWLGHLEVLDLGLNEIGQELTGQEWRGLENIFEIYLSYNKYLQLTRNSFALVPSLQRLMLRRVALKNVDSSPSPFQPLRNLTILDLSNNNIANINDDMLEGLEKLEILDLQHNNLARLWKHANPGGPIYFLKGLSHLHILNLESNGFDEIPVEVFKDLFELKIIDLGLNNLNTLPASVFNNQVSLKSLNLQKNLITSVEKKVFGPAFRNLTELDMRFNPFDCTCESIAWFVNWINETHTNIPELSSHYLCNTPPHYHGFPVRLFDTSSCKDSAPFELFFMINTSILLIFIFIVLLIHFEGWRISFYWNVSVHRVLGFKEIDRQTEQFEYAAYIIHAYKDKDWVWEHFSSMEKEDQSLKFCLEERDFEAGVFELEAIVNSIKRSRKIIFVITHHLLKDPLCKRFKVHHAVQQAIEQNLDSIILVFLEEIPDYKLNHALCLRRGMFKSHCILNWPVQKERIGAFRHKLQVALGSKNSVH

Mus musculus = test: Increase in IFN-alpha level in BALB/c mouse serum at 0.3 mg/kg, administered intranasally after 2 hrs by ELISA; type: functional, organism-based
[6] = Toxicity in male rat assessed as NOAEL after 8 weeks; conditions: in vivo
[7] = biological target: T1, Toll-like receptor 7 (Macaca fascicularis); test: In vivo target occupancy at TLR7 in cynomolgus monkey assessed as fold increase in OAS1 mRNA expression in nasal scrape at 30 ng/kg administered intranasally incubated for 24 hrs by TaqMan analysis (reference value: 1.2); type: functional
PBMC = test: Immunomodulatory activity in human PBMC assessed as IL-10 production in presence of allergen timothy grass; type: functional, cell-based
Toll-like receptor 7 [8] = biological target: T2, Toll-like receptor 7 (Homo sapiens, UniProt Q9NYK1); test: Agonist activity at TLR7 in human PBMC assessed as TNF-alpha production after 24 hrs by electrochemiluminescence assay; type: cell-based
T2 sequence (Q9NYK1 whole entry): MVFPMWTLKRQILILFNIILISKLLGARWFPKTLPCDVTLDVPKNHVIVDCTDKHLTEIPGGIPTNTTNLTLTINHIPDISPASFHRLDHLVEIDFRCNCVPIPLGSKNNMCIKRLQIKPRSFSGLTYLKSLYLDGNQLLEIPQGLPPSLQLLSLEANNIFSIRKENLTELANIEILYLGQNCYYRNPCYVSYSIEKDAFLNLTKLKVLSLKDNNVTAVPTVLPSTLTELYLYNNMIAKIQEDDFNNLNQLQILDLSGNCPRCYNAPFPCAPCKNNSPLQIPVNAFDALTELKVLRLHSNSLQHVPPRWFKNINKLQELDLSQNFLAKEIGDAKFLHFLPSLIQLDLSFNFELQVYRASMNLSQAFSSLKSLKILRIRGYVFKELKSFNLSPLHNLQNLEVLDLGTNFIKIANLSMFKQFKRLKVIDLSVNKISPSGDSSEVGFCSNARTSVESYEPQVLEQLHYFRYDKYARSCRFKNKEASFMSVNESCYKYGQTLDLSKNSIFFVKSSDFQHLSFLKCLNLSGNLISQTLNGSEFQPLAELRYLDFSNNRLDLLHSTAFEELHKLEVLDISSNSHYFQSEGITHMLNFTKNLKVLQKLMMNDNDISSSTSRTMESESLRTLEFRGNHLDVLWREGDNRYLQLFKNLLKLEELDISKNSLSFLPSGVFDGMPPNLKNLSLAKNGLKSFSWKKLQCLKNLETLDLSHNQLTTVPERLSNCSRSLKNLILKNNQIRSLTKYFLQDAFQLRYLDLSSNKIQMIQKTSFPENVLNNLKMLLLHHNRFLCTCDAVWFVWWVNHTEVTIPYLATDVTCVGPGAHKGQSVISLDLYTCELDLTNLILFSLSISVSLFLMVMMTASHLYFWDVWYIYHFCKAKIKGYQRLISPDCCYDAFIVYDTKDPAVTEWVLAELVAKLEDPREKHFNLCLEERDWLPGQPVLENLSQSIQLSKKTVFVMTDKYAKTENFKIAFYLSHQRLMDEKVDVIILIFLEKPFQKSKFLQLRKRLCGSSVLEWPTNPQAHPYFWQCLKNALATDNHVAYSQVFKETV

Rattus norvegicus = test: Induction of IFNalpha production in rat at 0.4 mg/kg measured after 2 hrs; type: functional, organism-based
Toll-like receptor 7 [9] = biological target: T2, Toll-like receptor 7; test: Agonist activity at TLR7 in human PBMC assessed as IFN-alpha production after 24 hrs by electrochemiluminescence assay; type: cell-based
[10] = Ocular toxicity in monkey at 1000 ug/ml post single dose administration after 48 hrs; parameters: species or system Macaca mulatta; conditions: rhesus monkey, in vivo, dose 1000 µg/ml
[11] = Bioavailability in mouse after intranasal administration; type: ADME, organism-based; conditions: in vivo, inhaled or intranasal

- fold change (FC) [1]: 638
- fold change (FC) [3]: 97.6
- Activity [5]: inactive
- fold change (FC) [7]: 53.7
- EC50 (Toll-like receptor 7 [8]): 316 nM
- EC50 (Toll-like receptor 7 [9]): 7.94 nM
- bioavailability [11]: 42%
Compound: CCC[C@H](C)Oc1nc(N)c2[nH]c(=O)n(CCCCCN3CCCCC3)c2n1 [GSK-2245035]
- Activity [2]: Non-Toxic
- NOAEL at 1344 h [4]: 0.698 mg/kg
- Activity (Cynomolgus monkey): inactive
- Activity (Mus musculus): Active
- NOAEL at 1344 h [6]: 0.406 mg/kg
- Activity (PBMC): Active
- Activity (Rattus norvegicus): Active
- Activity [10]: Toxic
